# Patent publication US12575572B2, “Systems, methods, and apparatuses for disinfection and decontamination” (priority 2020, dated 2026)
# Test system: Phi6 bacteriophage (surrogate for Coronavirus and Ebola)
smiles,measurement,value
"[O][Cl+][O-] [ClO2, chlorine dioxide]",virions recovered from treated coupons,no virions were recovered
